Test results taken from PubChem BioAssay AID2060614 (Molecular Pharmacology Branch, DTP, NCI, 2025).

System: 598228-144-R-J1-PDC complex spheroids, viability
Test: Anticancer human tumor 598228-144-R-J1-PDC patient-derived serous endometrial adenocarcinoma cell line growth inhibition [CLK]
Details: for IC50: curve of first compound; for viability, T/C: stronger effect = lower value; active = viability on the fitted dose curve at most 10% of control; inactive = the rest
In short: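 Multi-cell-type spheroids combined patient-derived tumor cells with HUVEC endothelial cells and human mesenchymal stem cells. Paired agents were dosed in half-log steps down from about clinical Cmax, or from 10 microM where Cmax was unknown.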

[1] = second compound 0.0316 µM, first compound 0.00316 µM
[2] = second compound 0.0316 µM, first compound 0.01 µM
[3] = second compound 0.0316 µM, first compound 0.0316 µM
[4] = second compound 0.0316 µM, first compound 0.1 µM
[5] = second compound 0.0316 µM, first compound 0.316 µM
[6] = second compound 0.0316 µM, first compound 1 µM
[7] = second compound 0.1 µM, first compound 0.00316 µM
[8] = second compound 0.1 µM, first compound 0.01 µM
[9] = second compound 0.1 µM, first compound 0.0316 µM
[10] = second compound 0.1 µM, first compound 0.1 µM
[11] = second compound 0.1 µM, first compound 0.316 µM
[12] = second compound 0.1 µM, first compound 1 µM
[13] = second compound 0.316 µM, first compound 0.00316 µM
[14] = second compound 0.316 µM, first compound 0.01 µM
[15] = second compound 0.316 µM, first compound 0.0316 µM
[16] = second compound 0.316 µM, first compound 0.1 µM
[17] = second compound 0.316 µM, first compound 0.316 µM
[18] = second compound 0.316 µM, first compound 1 µM
[19] = second compound 1 µM, first compound 0.00316 µM
[20] = second compound 1 µM, first compound 0.01 µM
[21] = second compound 1 µM, first compound 0.0316 µM
[22] = second compound 1 µM, first compound 0.1 µM
[23] = second compound 1 µM, first compound 0.316 µM
[24] = second compound 1 µM, first compound 1 µM
[25] = second compound 3.16 µM, first compound 0.00316 µM
[26] = second compound 3.16 µM, first compound 0.01 µM
[27] = second compound 3.16 µM, first compound 0.0316 µM
[28] = second compound 3.16 µM, first compound 0.1 µM
[29] = second compound 3.16 µM, first compound 0.316 µM
[30] = second compound 3.16 µM, first compound 1 µM
[31] = second compound 10 µM, first compound 0.00316 µM
[32] = second compound 10 µM, first compound 0.01 µM
[33] = second compound 10 µM, first compound 0.0316 µM
[34] = second compound 10 µM, first compound 0.1 µM
[35] = second compound 10 µM, first compound 0.316 µM
[36] = second compound 10 µM, first compound 1 µM
[37] = second compound 0.0316 µM, first compound 3.16 µM
[38] = second compound 0.0316 µM, first compound 10 µM
[39] = second compound 0.1 µM, first compound 3.16 µM
[40] = second compound 0.1 µM, first compound 10 µM
[41] = second compound 0.316 µM, first compound 3.16 µM
[42] = second compound 0.316 µM, first compound 10 µM
[43] = second compound 1 µM, first compound 3.16 µM
[44] = second compound 1 µM, first compound 10 µM
[45] = second compound 3.16 µM, first compound 3.16 µM
[46] = second compound 3.16 µM, first compound 10 µM
[47] = second compound 10 µM, first compound 3.16 µM
[48] = second compound 10 µM, first compound 10 µM
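Note: spheroids exposed to compounds for seven days before readout.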
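Throughout, for viability, T/C: 100% = DMSO vehicle control wells.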

CCc1c2c(nc3ccc(O)cc13)-c1cc3c(c(=O)n1C2)COC(=O)[C@]3(O)CC + CN1CCN(c2cc(C(=O)Nc3cc4cc(-c5cnn(C)c5)ccc4cn3)ccn2)CC1
< 3.16 nM: IC50 (second compound 0.316 µM) | IC50 (second compound 1 µM) | IC50 (second compound 3.16 µM) | IC50 (second compound 10 µM)
96 nM: IC50 (second compound 0.1 µM)
active: viability, T/C [17] 5.94% | viability, T/C [18] 5.35% | viability, T/C [19] 1.34% | viability, T/C [20] 0.98% | viability, T/C [21] 2.66% | viability, T/C [22] 0.5% | viability, T/C [23] 2.92% | viability, T/C [24] 4.75% | viability, T/C [25] 1.44% | viability, T/C [26] 1.88% | viability, T/C [27] 0.95% | viability, T/C [28] 1.2% | viability, T/C [29] 2.83% | viability, T/C [30] 4.75% | viability, T/C [31] 0.83% | viability, T/C [32] 0.62% | viability, T/C [33] 2.12% | viability, T/C [34] 0.62% | viability, T/C [35] 6.02% | viability, T/C [36] 4.41%
inactive: viability, T/C [1] 104% | viability, T/C [2] 91.3% | viability, T/C [3] 73.8% | viability, T/C [4] 39.2% | viability, T/C [5] 16.6% | viability, T/C [6] 13.1% | viability, T/C [7] 152% | viability, T/C [8] 121% | viability, T/C [9] 84% | viability, T/C [10] 47.4% | viability, T/C [11] 23.3% | viability, T/C [12] 9.49% | viability, T/C [13] 17.4% | viability, T/C [14] 17.4% | viability, T/C [15] 18.3% | viability, T/C [16] 13.1%
68.3 nM: IC50 (second compound 0.0316 µM)

Cn1ncnc1[C@H]1c2n[nH]c(=O)c3cc(F)cc(c23)N[C@@H]1c1ccc(F)cc1 + CN1CCN(c2cc(C(=O)Nc3cc4cc(-c5cnn(C)c5)ccc4cn3)ccn2)CC1
inactive: viability, T/C (second compound 0.0316 µM, first compound 0.000316 µM) 126% | viability, T/C (second compound 0.0316 µM, first compound 0.001 µM) 119% | viability, T/C [1] 107% | viability, T/C [2] 113% | viability, T/C [3] 107% | viability, T/C [4] 122% | viability, T/C (second compound 0.1 µM, first compound 0.000316 µM) 117% | viability, T/C (second compound 0.1 µM, first compound 0.001 µM) 125% | viability, T/C [7] 114% | viability, T/C [8] 116% | viability, T/C [9] 133% | viability, T/C [10] 129% | viability, T/C (second compound 0.316 µM, first compound 0.000316 µM) 19.3% | viability, T/C (second compound 0.316 µM, first compound 0.001 µM) 19.1% | viability, T/C [13] 16.3% | viability, T/C [14] 19% | viability, T/C [15] 18.8% | viability, T/C [16] 16.7%
< 0.316 nM: IC50 (second compound 0.316 µM) | IC50 (second compound 1 µM) | IC50 (second compound 3.16 µM) | IC50 (second compound 10 µM)
active: viability, T/C (second compound 1 µM, first compound 0.000316 µM) 1.63% | viability, T/C (second compound 1 µM, first compound 0.001 µM) 1.39% | viability, T/C [19] 1.72% | viability, T/C [20] 1.32% | viability, T/C [21] 3.04% | viability, T/C [22] 3.99% | viability, T/C (second compound 3.16 µM, first compound 0.000316 µM) 1.68% | viability, T/C (second compound 3.16 µM, first compound 0.001 µM) 3.14% | viability, T/C [25] 1.85% | viability, T/C [26] 2.2% | viability, T/C [27] 1.94% | viability, T/C [28] 6.61% | viability, T/C (second compound 10 µM, first compound 0.000316 µM) 1.05% | viability, T/C (second compound 10 µM, first compound 0.001 µM) 2.11% | viability, T/C [31] 1.83% | viability, T/C [32] 0.71% | viability, T/C [33] 3.42% | viability, T/C [34] 4.51%
> 100 nM: IC50 (second compound 0.0316 µM) | IC50 (second compound 0.1 µM)

Nc1ccn(C2OC(CO)C(O)C2(F)F)c(=O)n1 (stereo not given) + CN1CCN(c2cc(C(=O)Nc3cc4cc(-c5cnn(C)c5)ccc4cn3)ccn2)CC1
inactive: viability, T/C [3] 42.6% | viability, T/C [4] 23.5% | viability, T/C [5] 24.3% | viability, T/C [6] 21.2% | viability, T/C [37] 23.4% | viability, T/C [38] 28.3% | viability, T/C [9] 46.5% | viability, T/C [10] 26.8% | viability, T/C [11] 25.4% | viability, T/C [12] 28.5% | viability, T/C [39] 28.5% | viability, T/C [40] 29.5% | viability, T/C [15] 18% | viability, T/C [16] 16.9% | viability, T/C [17] 14% | viability, T/C [18] 15.4% | viability, T/C [41] 17% | viability, T/C [42] 16.9%
active: viability, T/C [21] 3.9% | viability, T/C [22] 1.1% | viability, T/C [23] 2.41% | viability, T/C [24] 1.35% | viability, T/C [43] 2.84% | viability, T/C [44] 4.14% | viability, T/C [27] 1.84% | viability, T/C [28] 4.4% | viability, T/C [29] 1.37% | viability, T/C [30] 1.5% | viability, T/C [45] 5.71% | viability, T/C [46] 5.03% | viability, T/C [33] 0.74% | viability, T/C [34] 0.77% | viability, T/C [35] 2.69% | viability, T/C [36] 0.88% | viability, T/C [47] 5.39% | viability, T/C [48] 1.96%
< 31.6 nM: IC50 (second compound 0.0316 µM) | IC50 (second compound 0.1 µM) | IC50 (second compound 0.316 µM) | IC50 (second compound 1 µM) | IC50 (second compound 3.16 µM) | IC50 (second compound 10 µM)

O=C(c1cc(Cc2n[nH]c(=O)c3ccccc23)ccc1F)N1CCN(C(=O)C2CC2)CC1 + CN1CCN(c2cc(C(=O)Nc3cc4cc(-c5cnn(C)c5)ccc4cn3)ccn2)CC1
> 10000 nM: IC50 (second compound 0.0316 µM) | IC50 (second compound 0.1 µM)
inactive: viability, T/C [3] 123% | viability, T/C [4] 120% | viability, T/C [5] 114% | viability, T/C [6] 118% | viability, T/C [37] 116% | viability, T/C [38] 103% | viability, T/C [9] 130% | viability, T/C [10] 119% | viability, T/C [11] 107% | viability, T/C [12] 126% | viability, T/C [39] 125% | viability, T/C [40] 131% | viability, T/C [15] 16.7% | viability, T/C [16] 17.2% | viability, T/C [17] 18.8% | viability, T/C [18] 14.9% | viability, T/C [41] 13.7% | viability, T/C [42] 14.9%
active: viability, T/C [21] 1.51% | viability, T/C [22] 1.3% | viability, T/C [23] 2.76% | viability, T/C [24] 1.57% | viability, T/C [43] 2.8% | viability, T/C [44] 3.04% | viability, T/C [27] 1.72% | viability, T/C [28] 1.59% | viability, T/C [29] 1.74% | viability, T/C [30] 2.04% | viability, T/C [45] 2.75% | viability, T/C [46] 4.75% | viability, T/C [33] 0.94% | viability, T/C [34] 0.9% | viability, T/C [35] 1.84% | viability, T/C [36] 1.05% | viability, T/C [47] 1.89% | viability, T/C [48] 3.42%
< 31.6 nM: IC50 (second compound 0.316 µM) | IC50 (second compound 1 µM) | IC50 (second compound 3.16 µM) | IC50 (second compound 10 µM)

O=c1[nH]cc(F)c(=O)[nH]1 + CN1CCN(c2cc(C(=O)Nc3cc4cc(-c5cnn(C)c5)ccc4cn3)ccn2)CC1
inactive: viability, T/C [3] 128% | viability, T/C [4] 120% | viability, T/C [5] 132% | viability, T/C [6] 125% | viability, T/C [37] 125% | viability, T/C [38] 96.5% | viability, T/C [9] 149% | viability, T/C [10] 119% | viability, T/C [11] 123% | viability, T/C [12] 139% | viability, T/C [39] 113% | viability, T/C [40] 96% | viability, T/C [15] 20.4% | viability, T/C [16] 25% | viability, T/C [17] 18.3% | viability, T/C [18] 18% | viability, T/C [41] 18.1% | viability, T/C [42] 21.4%
> 10000 nM: IC50 (second compound 0.0316 µM) | IC50 (second compound 0.1 µM)
active: viability, T/C [21] 1.7% | viability, T/C [22] 1.4% | viability, T/C [23] 1.3% | viability, T/C [24] 1.91% | viability, T/C [43] 4.01% | viability, T/C [44] 5.93% | viability, T/C [27] 1.76% | viability, T/C [28] 3.81% | viability, T/C [29] 1.88% | viability, T/C [30] 2.14% | viability, T/C [45] 1.46% | viability, T/C [46] 5.59% | viability, T/C [33] 0.99% | viability, T/C [34] 0.93% | viability, T/C [35] 0.6% | viability, T/C [36] 1.01% | viability, T/C [47] 5.93% | viability, T/C [48] 4.87%
< 31.6 nM: IC50 (second compound 0.316 µM) | IC50 (second compound 1 µM) | IC50 (second compound 3.16 µM) | IC50 (second compound 10 µM)
